The subject of one experiment is KDM5A/B. As to the kind of experiment: In vitro cell-based assay: immuno-blot quantification of tri-methyl H3K4 in ZR-75-1 breast cancer cells. The note with it: 72 hours, tri-methyl H3K4 level relative to GAPDH, percent of DMSO, read-out: Cellular IC50. From the text:
An assay to measure the degree of cellular inhibition of KDM5A and 5B was developed. This quantitative immuno-blotting assay measures the amount tri-methylated histone H3 at amino acid Lysine number 4, a specific substrate […] of the direct enzymatic activity of the histone demethylases KDM5A and KDM5B from extracts of the ZR-75-1 breast cancer cell line.
This assay is a fluorometric immunoassay for the quantification of tri-methyl H3K4 extracted from cells treated with test compound and is used as a measure of the cellular inhibition of KDM5A/B.
ZR-75-1 (PTEN null, ER+) breast cancer cells numbering 50,000 (ATCC) were seeded into each well of a 96-well tissue culture treated plate and then exposed to an 11 point dilution of test compound with final concentration ranges of test compound ranging from 1250 μM to 10 nM. Cells were left in the presence of test compound for 72 hours. Extracts were prepared containing all of the cellular histone material using detergent based lysis and sonication methods. These lysates were subsequently normalized for total protein content using a colorimetric bicinchonic acid assay (MicroBCA Pierce/Thermo Scientific). Normalized cell extracts were then subjected to typical immuno-blotting procedures using NuPage reagents (Life Technologies). Electrophoretically separated histones were then transferred and immobilized using polyvinylidene difluoride membrane (Immobilon-FL Millipore). The amount of tri-methylated lysine 4 of histone H3 was detected using an antibody specific to the tri-methylated state (Cell Signaling Technologies) and quantified on an infrared imager using a densitometry software package (Odyssey CLx, Image Studio, Li-Cor). This background subtracted densitometry value was reported as a ration of the GAPDH amount for that sample and then calculated as a percent of the DMSO treated sample. The software package XL-fit (IDBS) was then used to calculate a relative IC50 value for the dilution series of a given test compound according to the equation: fit=(D+((Vmax*(x^n))/((x^n)+(Km^n)))).

In the next experiment the target is T1, Jarid1A (Homo sapiens, UniProt P29375).
T1 construct: purchased BPS Bioscience 50110
T1 sequence (P29375 1-1090): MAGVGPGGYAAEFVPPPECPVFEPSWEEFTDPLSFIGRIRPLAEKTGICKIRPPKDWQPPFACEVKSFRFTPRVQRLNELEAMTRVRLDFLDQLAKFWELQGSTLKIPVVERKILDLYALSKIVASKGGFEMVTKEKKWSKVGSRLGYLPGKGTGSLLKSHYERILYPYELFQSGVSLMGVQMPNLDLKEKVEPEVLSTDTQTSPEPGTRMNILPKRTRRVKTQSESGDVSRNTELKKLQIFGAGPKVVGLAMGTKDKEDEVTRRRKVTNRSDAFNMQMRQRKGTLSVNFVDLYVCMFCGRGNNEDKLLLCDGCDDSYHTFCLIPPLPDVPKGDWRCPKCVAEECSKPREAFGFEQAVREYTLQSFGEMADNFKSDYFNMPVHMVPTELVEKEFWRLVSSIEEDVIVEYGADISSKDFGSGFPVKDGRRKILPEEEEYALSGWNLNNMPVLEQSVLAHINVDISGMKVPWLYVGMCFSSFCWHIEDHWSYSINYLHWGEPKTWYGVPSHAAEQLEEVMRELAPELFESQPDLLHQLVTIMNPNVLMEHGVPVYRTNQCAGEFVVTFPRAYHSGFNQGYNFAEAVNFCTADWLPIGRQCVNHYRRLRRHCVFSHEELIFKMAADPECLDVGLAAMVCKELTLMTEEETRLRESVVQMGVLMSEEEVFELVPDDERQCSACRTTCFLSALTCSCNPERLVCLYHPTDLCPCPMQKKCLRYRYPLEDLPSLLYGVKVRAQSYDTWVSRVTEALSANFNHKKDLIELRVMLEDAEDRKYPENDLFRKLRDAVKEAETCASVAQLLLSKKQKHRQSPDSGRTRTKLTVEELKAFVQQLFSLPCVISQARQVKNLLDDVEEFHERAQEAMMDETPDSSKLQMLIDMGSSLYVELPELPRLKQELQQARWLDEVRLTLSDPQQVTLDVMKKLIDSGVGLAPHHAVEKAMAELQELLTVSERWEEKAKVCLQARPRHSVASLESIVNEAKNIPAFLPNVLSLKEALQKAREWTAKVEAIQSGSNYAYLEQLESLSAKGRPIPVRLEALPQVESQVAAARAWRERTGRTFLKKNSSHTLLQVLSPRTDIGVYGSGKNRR
As to the kind of experiment: Jarid1A in vitro enzyme inhibition assay (TR-FRET). It is filed as biochemical. From the text: This assay determines the ability of a test compound to inhibit Jarid1A, Jarid1B, and JMJD2C demethylase activity. Baculovirus expressed Jarid1A (GenBank Accession #NM_001042603, AA1-1090) was purchased from BPS Bioscience (Cat#50110). Baculovirus expressed Jarid1B (GenBank Accession #NM_006618, AA 2-751) was purchased from BPS Bioscience (Cat #50121) or custom made by MolecularThroughput. Baculovirus expressed JMJD2C (GenBank Accession #BC143571, AA 2-372) was purchased from BPS Bioscience (Cat#50105).
The enzymatic assay of Jarid1A activity is based upon Time Resolved-Fluorescence Resonance Energy Transfer (TR-FRET) detection. The ability of test compounds to inhibit the activity of Jarid1A was determined in 384-well plate format under the following reaction conditions: 1 nM Jarid1A, 300 nM H3K4me3-biotin labeled peptide (Anaspec cat #64357), 2 μM alpha-ketoglutaric acid in assay buffer of 50 mM HEPES, pH7.3, 0.005% Brij35, 0.5 mM TCEP, 0.2 mg/ml BSA, 50 μM sodium L-ascorbate, and 2 μM ammonium iron(II) sulfate. Reaction product was determined quantitatively by TR-FRET after the addition of detection reagent Phycolink Streptavidin-allophycocyanin (Prozyme) and Europium-anti-mono-or di-methylated histone H3 lysine 4 (H3K4me1-2) antibody (PerkinElmer) in the presence of 5 mM EDTA in LANCE detection buffer (PerkinElmer) at a final concentration of 25 nM and 1 nM, respectively.
The assay reaction was initiated by the following: 2 μl of the mixture of 900 nM H3K4me3-biotin labeled peptide and 6 μM alpha-ketoglutaric acid with 2 μl of 11-point serial diluted inhibitor in 3% DMSO was added to each well of plate, followed by the addition of 2 μl of 3 nM Jarid1A to initiate the reaction. The reaction mixture was incubated at room temperature for 30 minutes, and terminated by the addition of 6 μl of 5 mM EDTA in LANCE detection buffer containing 50 nM Phycolink Streptavidin-allophycocyanin and 2 nM Europium-anti-H3K4me1-2 antibody. Plates were read by EnVisionMultilabel Reader in TR-FRET mode (excitation at 320 nm, emission at 615 nm and 665 nm) after 1 hour incubation at room temperature. A ratio was calculated (665/615) for each well and fitted to determine inhibition constant (IC50).

Turning to `Oc1nc(Oc2cnn(Cc3ccc(F)cc3)c2)nc2cnccc12` [Example 86, 2-[1-(4-fluorobenzyl)pyrazol-4-yl]oxypyrido[3,4-d]pyrimidin-4-ol], the figures for the IC50 in the experiment on KDM5A/B and at Jarid1A were 1000 to 10000 nM and ≤ 100 nM, respectively.

For `Oc1nc(OCC(F)(F)F)nc2cnccc12` [Example 12, 2-(2,2,2-trifluoroethoxy)pyrido[3,4-d]pyrimidin-4-ol], the IC50 in the experiment on KDM5A/B is > 10000 nM; on Jarid1A it was ≤ 100 nM.

For `CC(C)CCn1cc(Oc2nc(O)c3ccncc3n2)cn1` [Example 55, 2-{[1-(3-methylbutyl)pyrazol-4-yl]oxy}pyrido[3,4-d]pyrimidin-4-ol], the IC50 is 1000 to 10000 nM with KDM5A/B and ≤ 100 nM at Jarid1A.

As to `Oc1nc(Oc2cccc(C(F)(F)F)c2)nc2cnccc12` [Example 52, 2-[3-(trifluoromethyl)phenoxy]pyrido[3,4-d]pyrimidin-4-ol], the IC50 was 1000 to 10000 nM in the experiment on KDM5A/B and ≤ 100 nM on Jarid1A.

For the compound `Oc1nc(Oc2cccc(Cl)c2)nc2cnccc12` [Example 41, 2-(3-chlorophenoxy)pyrido[3,4-d]pyrimidin-4-ol], the values for the IC50 in the experiment on KDM5A/B and against Jarid1A were > 10000 nM and ≤ 100 nM, respectively.

As for `Oc1nc(OCc2ccccc2)nc2cnccc12` [Example 4, 2-phenylmethoxypyrido[3,4-d]pyrimidin-4-ol], the IC50 with KDM5A/B is 1000 to 10000 nM; on Jarid1A it was 100 to 1000 nM.

`CC(=O)Nc1ccc(Oc2nc(O)c3ccncc3n2)cc1` [Example 35, N-[4-(4-hydroxypyrido[3,4-d]pyrimidin-2-yl)oxyphenyl]acetamide]: the IC50 with KDM5A/B is 1000 to 10000 nM; against Jarid1A, ≤ 100 nM.

As for `Oc1nc(Oc2cccc(F)c2)nc2cnccc12` [Example 40, 2-(3-fluorophenoxy)pyrido[3,4-d]pyrimidin-4-ol], the figures for the IC50 in the experiment on KDM5A/B and on Jarid1A were > 10000 nM and ≤ 100 nM, respectively.

Consider `Cn1cnc(-c2nccc3c(O)nc(OCc4ccc(F)cc4)nc23)c1` [Example 71, 2-[(4-fluorobenzyl)oxy]-8-(1-methyl-1H-imidazol-4-yl)pyrido[3,4-d]pyrimidin-4-ol], for which the IC50 in the experiment on KDM5A/B is 1000 to 10000 nM; on Jarid1A, ≤ 100 nM.

As to `CC(C)(C)OC(=O)N1CCC(n2cc(Oc3nc(O)c4ccncc4n3)cn2)CC1` [Example 88, tert-butyl 4-[4-(4-hydroxypyrido[3,4-d]pyrimidin-2-yl)oxypyrazol-1-yl]piperidine-1-carboxylate], the IC50 is 1000 to 10000 nM in the experiment with KDM5A/B and ≤ 100 nM on Jarid1A.

On to `Oc1nc(Oc2ccc(F)cc2)nc2cnccc12` [Example 47, 2-(4-fluorophenoxy)pyrido[3,4-d]pyrimidin-4-ol], for which the values for the IC50 with KDM5A/B and on Jarid1A were > 10000 nM and ≤ 100 nM, respectively.

`Oc1nc(Oc2cnn(Cc3ccccc3)c2)nc2cnccc12` [Example 66, 2-[(1-benzyl-1H-pyrazol-4-yl)oxy]pyrido[3,4-d]pyrimidin-4-ol]: the figures for the IC50 in the experiment on KDM5A/B and on Jarid1A were 1000 to 10000 nM and ≤ 100 nM, respectively.

For `CCCOc1nc(O)c2ccncc2n1` [Example 7, 2-propoxy-3H-pyrido[3,4-d]pyrimidin-4-one], the IC50 was > 10000 nM in the experiment on KDM5A/B and ≤ 100 nM against Jarid1A.

As to `COc1ccc(Oc2nc(O)c3ccncc3n2)cc1F` [Example 53, 2-(3-fluoro-4-methoxyphenoxy)pyrido[3,4-d]pyrimidin-4-ol], the IC50 is 1000 to 10000 nM with KDM5A/B and ≤ 100 nM against Jarid1A.

On to `Oc1nc(Oc2cnn(Cc3ccccc3F)c2)nc2cnccc12` [Example 87, 2-[1-(2-fluorobenzyl)pyrazol-4-yl]oxypyrido[3,4-d]pyrimidin-4-ol], for which the values for the IC50 in the experiment on KDM5A/B and against Jarid1A were 100 to 1000 nM and ≤ 100 nM, respectively.

Regarding `Cn1cnc(-c2nccc3c(O)nc(OCC(F)(F)F)nc23)c1` [Example 70, 8-(1-methyl-1H-imidazol-4-yl)-2-(2,2,2-trifluoroethoxy)pyrido[3,4-d]pyrimidin-4-ol], the IC50 in the experiment on KDM5A/B was 1000 to 10000 nM; at Jarid1A, ≤ 100 nM.

With `CN(C)c1cccc(Oc2nc(O)c3ccncc3n2)c1` [Example 50, 2-[3-(dimethylamino)phenoxy]pyrido[3,4-d]pyrimidin-4-ol], the IC50 in the experiment with KDM5A/B was > 10000 nM; against Jarid1A, ≤ 100 nM.

As to `CCc1cccc(Oc2nc(O)c3ccncc3n2)c1` [Example 57, 2-(3-ethylphenoxy)pyrido[3,4-d]pyrimidin-4-ol], the concentration for half-maximal inhibition (IC50) was > 10000 nM with KDM5A/B and ≤ 100 nM at Jarid1A.

In the case of `Cn1cnc(-c2nccc3c(O)nc(OCCCC(F)(F)F)nc23)c1` [Example 74, 8-(1-methylimidazol-4-yl)-2-(4,4,4-trifluorobutoxy)pyrido[3,4-d]pyrimidin-4-ol], the IC50 in the experiment on KDM5A/B is 100 to 1000 nM; against Jarid1A, ≤ 100 nM.

For `Oc1nc(Oc2cnn(C3CCNCC3)c2)nc2cnccc12` [Example 89, 2-(1-piperidin-4-ylpyrazol-4-yl)oxypyrido[3,4-d]pyrimidin-4-ol], the IC50 in the experiment on KDM5A/B was 1000 to 10000 nM; against Jarid1A, ≤ 100 nM.

As to `COc1cccc(Oc2nc(O)c3ccncc3n2)c1` [Example 44, 2-(3-methoxyphenoxy)pyrido[3,4-d]pyrimidin-4-ol], the IC50 was > 10000 nM in the experiment with KDM5A/B and ≤ 100 nM at Jarid1A.

As for `Oc1nc(OCC2CCC2)nc2cnccc12` [Example 11, 2-(cyclobutylmethoxy)-3H-pyrido[3,4-d]pyrimidin-4-one], the IC50 with KDM5A/B was > 10000 nM; against Jarid1A, 100 to 1000 nM.

`CCOc1c(F)cc(Oc2nc(O)c3ccncc3n2)cc1F` [Example 45, 2-(4-ethoxy-3,5-difluorophenoxy)pyrido[3,4-d]pyrimidin-4-ol]: the IC50 in the experiment with KDM5A/B is > 10000 nM; on Jarid1A it was ≤ 100 nM.

One may read the IC50 as the point on the concentration scale where inhibition reaches its midpoint.

For the origin of these results see patent US10526327B2, “Histone demethylase inhibitors” (CELGENE QUANTICEL RESEARCH, INC., priority 2013, dated 2020).
